According to US11702422B2, “Imidazopyridazines as modulators of IL-17” (Janssen Pharmaceutica NV, priority 2020, dated 2023):

Tests used:
[1] = molecular target: IL-17A(FLAG-Tagged): IL-17RA(His-Tagged) (Homo sapiens, UniProt Q16552, K93Q); test: IL-17A(FLAG-Tagged): IL-17RA(His-Tagged) Binding Disruption Eu-HTRF Assay; conditions: IL-17A/IL-17RA binding disruption, simple average if tested more than once
Summary of the method: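 IC50 comes from a one-site competition fit of the HTRF 665/620 nm ratio. Compound dilutions (2-fold, 22 points) were held 1 h rt with FLAG-tagged IL-17A dimer, then His-tagged IL-17RA plus Eu-cryptate anti-FLAG and D2 anti-His antibodies were added for 2 h rt.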

[2] = system: IL-17A-induced G-CSF production in human normal keratinocyte (NHK); test: NHK Assay: IL-17A-induced G-CSF production in human normal keratinocytes; assay type: cell-based; conditions: 24 h, adult normal human keratinocytes, IL-17A 5 ng/mL, simple average if tested more than once
Summary of the method: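 Adult normal human keratinocytes were seeded at 3000-4000 cells/well. Recombinant human IL-17A was pre-incubated 1 h at rt with titrated compound, then added to cells (final 5 ng/mL IL-17A, 0.2% DMSO, 5% FBS) for 24 h at 37° C. Supernatant G-CSF was measured by HTRF against a standard curve to give IC50.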

UniProt Q16552, sequence (Q16552 with tags, fused parts or gaps K93Q): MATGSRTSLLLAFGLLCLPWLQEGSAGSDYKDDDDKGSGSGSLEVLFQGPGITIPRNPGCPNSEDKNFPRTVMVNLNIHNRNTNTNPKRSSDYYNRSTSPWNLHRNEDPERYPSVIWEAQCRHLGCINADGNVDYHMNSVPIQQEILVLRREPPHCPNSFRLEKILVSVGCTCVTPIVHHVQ

IC50 [1] [nM]	SMILES	IC50 ([2]; Homo sapiens, Keratinocyte) [nM]	IC50 [2] [nM]
240	O=C(CCC(F)(F)F)N[C@@H](c1cnn2cc([C@@H](NC(=O)C3CC3C(F)(F)F)C3CCC(F)(F)CC3)nc2c1)C1CC1 (mixture of isomers) [Example 43, (Trans-1,2)-N—((S)-(7-((R)-cyclopropyl(4,4,4-trifluorobutanamido)methyl)imidazo[1,2-b]pyridazin-2-yl)(4,4-difluorocyclohexyl)methyl)-2-(trifluoromethyl)cyclopropane-1-carboxamide]	720	–
61	Cc1nonc1C(=O)N[C@H](c1cn2ncc([C@H](NC(=O)CC3CC(F)(F)C3(F)F)C3CC3)cc2n1)C1CCC(F)(F)CC1 (single isomer, unassigned) [Example 324, N—((S)-(7-((R)-Cyclopropyl(2-((R*)-2,2,3,3-tetrafluorocyclobutyl)acetamido)methyl)imidazo[1,2-b]pyridazin-2-yl)(4,4-difluorocyclohexyl)methyl)-4-methyl-1,2,5-oxadiazole-3-carboxamide]	300	–
40	[2H]C([2H])([2H])C([2H])([2H])n1nccc1C(=O)N[C@H](c1cn2ncc(C(NC(=O)CC3CC(F)(F)C3)C3CCC3)cc2n1)C1CCC(F)(F)CC1 (single isomer, unassigned) [Example 495, N—((S)-(7-((R*)-Cyclobutyl(2-(3,3-difluorocyclobutyl)acetamido)methyl)imidazo[1,2-b]pyridazin-2-yl)(4,4-difluorocyclohexyl)methyl)-1-(ethyl-d5)-1H-pyrazole-5-carboxamide]	–	300
120	CC(C)n1nccc1C(=O)N[C@H](c1cn2ncc([C@H](NC(=O)CCC(C)(F)F)C3CC3)cc2n1)C1CCC(F)(F)CC1 [Example 260, N—((S)-(7-((R)-Cyclopropyl(4,4-difluoropentanamido)methyl)imidazo[1,2-b]pyridazin-2-yl)(4,4-difluorocyclohexyl)methyl)-1-isopropyl-1H-pyrazole-5-carboxamide]	180	–
160	O=C(CC1CC(F)(F)C1)N[C@@H](c1cnn2cc([C@@H](NC(=O)c3conc3OCC(F)F)C3CCC(F)(F)CC3)nc2c1)C1CC1 [Example 293, N—((S)-(7-((R)-Cyclopropyl(2-(3,3-difluorocyclobutyl)acetamido)methyl)imidazo[1,2-b]pyridazin-2-yl)(4,4-difluorocyclohexyl)methyl)-3-(2,2-difluoroethoxy)isoxazole-4-carboxamide]	540	–
37	O=C(CCC(F)(F)F)N[C@@H](c1cnn2cc([C@@H](NC(=O)c3cccc(OC(F)F)c3)C3CCC(F)(F)CC3)nc2c1)C1CC1 [Example 167, N—((S)-(7-((R)-Cyclopropyl(4,4,4-trifluorobutanamido)methyl)imidazo[1,2-b]pyridazin-2-yl)(4,4-difluorocyclohexyl)methyl)-3-(difluoromethoxy)benzamide]	160	–
130	CC(C)C(NC(=O)CCC(F)(F)F)c1cnn2cc([C@@H](NC(=O)c3ccnn3C(C)C)C3CCC(F)(F)CC3)nc2c1 (single isomer, unassigned) [Example 155, N—((S)-(4,4-Difluorocyclohexyl)(7-((S*)-2-methyl-1-(4,4,4-trifluorobutanamido)propyl)imidazo[1,2-b]pyridazin-2-yl)methyl)-1-isopropyl-1H-pyrazole-5-carboxamide]	–	53
140	CC(C)(O)c1nonc1C(=O)N[C@H](c1cn2ncc([C@H](NC(=O)CCC(F)(F)F)C3CC3)cc2n1)C1CCC(F)(F)CC1 [Example 371, N—((S)-(7-((R)-Cyclopropyl(4,4,4-trifluorobutanamido)methyl)imidazo[1,2-b]pyridazin-2-yl)(4,4-difluorocyclohexyl)methyl)-4-(2-hydroxypropan-2-yl)-1,2,5-oxadiazole-3-carboxamide]	450	–
520	Cc1nonc1C(=O)N[C@H](c1cn2ncc([C@H](NC(=O)[C@@H]3CNC[C@H]3C(F)(F)F)C3CC3)cc2n1)C1CCC(F)(F)CC1 (relative stereo) [Example 356, N—((S)-(7-((R)-Cyclopropyl((trans-3S*,4S*)-4-(trifluoromethyl)pyrrolidine-3-carboxamido)methyl)imidazo[1,2-b]pyridazin-2-yl)(4,4-difluorocyclohexyl)methyl)-4-methyl-1,2,5-oxadiazole-3-carboxamide]	7800	–
190	CC(C)n1nccc1C(=O)N[C@H](c1cn2ncc(C(NC(=O)CC3CC(F)(F)C3)C(F)F)cc2n1)C1CCC(F)(F)CC1 (single isomer, unassigned) [Example 519, N—((S)-(7-((S*)-1-(2-(3,3-Difluorocyclobutyl)acetamido)-2,2-difluoroethyl)imidazo[1,2-b]pyridazin-2-yl)(4,4-difluorocyclohexyl)methyl)-1-isopropyl-1H-pyrazole-5-carboxamide]	–	53
47	[2H]C([2H])([2H])C([2H])([2H])n1nccc1C(=O)N[C@H](c1cn2ncc([C@H](NC(=O)CCC(F)(F)F)C3CC3)cc2n1)C1CCC(F)(F)CC1 [Example 233, N—((S)-(7-((R)-Cyclopropyl(4,4,4-trifluorobutanamido)methyl)imidazo[1,2-b]pyridazin-2-yl)(4,4-difluorocyclohexyl)methyl)-1-(ethyl-d5)-1H-pyrazole-5-carboxamide]	51	–
5800	Cc1nonc1C(=O)N[C@H](c1cn2ncc(C(NC(=O)CC3CC(F)(F)C3)C(C)(C)O)cc2n1)C1CCC(F)(F)CC1 (single isomer, unassigned) [Example 445, N—((S)-(7-((R*)-1-(2-(3,3-Difluorocyclobutyl)acetamido)-2-hydroxy-2-methylpropyl)imidazo[1,2-b]pyridazin-2-yl)(4,4-difluorocyclohexyl)methyl)-4-methyl-1,2,5-oxadiazole-3-carboxamide]	–	> 20000
71	O=C(CCC(F)(F)F)NC(c1cnn2cc([C@@H](NC(=O)c3cnn(CC4CC4)n3)C3CCC(F)(F)CC3)nc2c1)C1CC1 (stereo in doubt) [Example 25, N—((S)-(7-((R*)-Cyclopropyl(4,4,4-trifluorobutanamido)methyl)imidazo[1,2-b]pyridazin-2-yl)(4,4-difluorocyclohexyl)methyl)-2-(cyclopropylmethyl)-2H-1,2,3-triazole-4-carboxamide]	350	–
1300	N#CC1(C(NC(=O)C(F)(F)CC2CC2)c2cnn3cc([C@@H](NC(=O)c4nonc4C4CC4)C4CCC(F)(F)CC4)nc3c2)CC1 (single isomer, unassigned) [Example 436, N—((S)-(7-((R*)-(1-Cyanocyclopropyl)(3-cyclopropyl-2,2-difluoropropanamido)methyl)imidazo[1,2-b]pyridazin-2-yl)(4,4-difluorocyclohexyl)methyl)-4-cyclopropyl-1,2,5-oxadiazole-3-carboxamide]	> 20000	–
56	Cc1nonc1C(=O)N[C@H](c1cn2ncc([C@H](NC(=O)C[C@H]3C[C@H](F)C3)C3CC3)cc2n1)C1CCC(F)(F)CC1 (single isomer, unassigned) [Example 266]	290	–
